{
  "source": "patent US9751889B2",
  "about": "(CRYSTAL PHARMATECH INC., priority 2013, dated 2017)",
  "key": {"physchem": {"assay": "physchem", "settings": "for Solubility / solubility at 1 h / solubility at 4 h / solubility at 24 h: RT; for Solubility: listed as WO2013184572A1 Form A; for solubility at 1 h / solubility at 4 h / solubility at 24 h: thermodynamic from solid", "description": "2. Add 3 mL of bio-relevant medium into each vial.\n3. Cap the vials and keep all the suspension samples stirring at RT (room temperature) using a rolling incubator at a rate of 25 r/min.\n4. Sample at 1 h, 4 h and 24 h respectively. About 0.6 mL aliquot of the suspension is transferred per time from solubility vial into a centrifuge filtration tube (pore size of 0.45 μm).\n5. Centrifuge filtration tubes at a rate of 8500 rpm for 3 minutes at RT, collect 0.2 mL of supernatant for HPLC quantification determination and collect the rest of solution for pH measurement, and separate the solid for XRPD characterization."}, "[1]": {"settings": "cited from earlier work"}, "[2]": {"settings": "DVS, 25° C.", "description": "Dynamic Vapor Sorption (DVS)\nDynamic Vapor Sorption (DVS) was measured via a SMS (Surface Measurement Systems) DVS Intrinsic. The relative humidity at 25° C. were calibrated against deliquescence point of LiCl, Mg(NO3)2 and KCl. Typical Parameters for DVS test are listed below."}, "[3]": {"settings": "dish open, 180 days; for Chemical purity: HPLC; for Final form: XRPD", "description": "The chemical and physical stabilities of the samples were evaluated by high performance liquid chromatography (HPLC) and XRPD."}},
  "note": "Where two headings read alike, the source gives them in different places.",
  "data": [
    {"smiles": "C=CC(=O)N1CCC[C@@H](n2nc(-c3ccc(Oc4ccccc4)cc3)c3c(N)ncnc32)C1", "note": "[Form A, 1-[(3R)-3-[4-amino-3-(4-phenoxyphenyl)-1H-pyrazolo [3,4-d]pyrimidin-1-yl]piperidin-1-yl]prop-2-en-1-one, reference compound]", "values": [
      {"measurement": "Solubility", "setting": "physchem; FeSSIF, time point 1 h", "result": 100, "unit": "µg/mL"},
      {"measurement": "Solubility", "setting": "physchem; FeSSIF, time point 4 h", "result": 110, "unit": "µg/mL"},
      {"measurement": "Solubility", "setting": "physchem; FeSSIF, time point 24 h", "result": 130, "unit": "µg/mL"},
      {"measurement": "Solubility", "setting": "physchem; SGF, time point 1 h", "result": 360, "unit": "µg/mL"},
      {"measurement": "Solubility", "setting": "physchem; SGF, time point 4 h", "result": 390, "unit": "µg/mL"},
      {"measurement": "Solubility", "setting": "physchem; SGF, time point 24 h", "result": 380, "unit": "µg/mL"},
      {"measurement": "Solubility", "setting": "[1]; pH=8", "result": 13, "unit": "µg/mL"}
    ]},
    {"smiles": "C=CC(=O)N1CCC[C@@H](n2nc(-c3ccc(Oc4ccccc4)cc3)c3c(N)ncnc32)C1", "note": "[Form B, 1-[(3R)-3-[4-amino-3-(4-phenoxyphenyl)-1H-pyrazolo [3,4-d]pyrimidin-1-yl]piperidin-1-yl]prop-2-en-1-one]", "values": [
      {"measurement": "Solubility", "setting": "[1]; pH=7.42", "result": 9.6, "unit": "µg/mL"}
    ]},
    {"smiles": "C=CC(=O)N1CCC[C@@H](n2nc(-c3ccc(Oc4ccccc4)cc3)c3c(N)ncnc32)C1", "note": "[Form I, 1-[(3R)-3-[4-amino-3-(4-phenoxyphenyl)-1H-pyrazolo [3,4-d]pyrimidin-1-yl]piperidin-1-yl]prop-2-en-1-one]", "values": [
      {"measurement": "Solubility in comparison to crystalline Form A (WO2013184572A1)", "setting": "physchem; FeSSIF and SGF", "result": "higher solubility"},
      {"measurement": "solubility at 1 h", "setting": "physchem; fed state simulated intestinal fluid (FeSSIF), fessif, time point 1 h", "result": 150, "unit": "µg/mL"},
      {"measurement": "solubility at 4 h", "setting": "physchem; fed state simulated intestinal fluid (FeSSIF), fessif, time point 4 h", "result": 160, "unit": "µg/mL"},
      {"measurement": "solubility at 24 h", "setting": "physchem; fed state simulated intestinal fluid (FeSSIF), fessif, time point 24 h", "result": 160, "unit": "µg/mL"},
      {"measurement": "solubility at 1 h", "setting": "physchem; simulated gastric fluid (SGF), simulated gastric fluid, SGF, time point 1 h", "result": 500, "unit": "µg/mL"},
      {"measurement": "solubility at 4 h", "setting": "physchem; simulated gastric fluid (SGF), simulated gastric fluid, SGF, time point 4 h", "result": 500, "unit": "µg/mL"},
      {"measurement": "solubility at 24 h", "setting": "physchem; simulated gastric fluid (SGF), simulated gastric fluid, SGF, time point 24 h", "result": 480, "unit": "µg/mL"},
      {"measurement": "Water uptake under 80% RH", "setting": "[2]; 80% RH", "result": 0.19, "unit": "%"},
      {"measurement": "Water uptake under 80% RH", "setting": "[2]; 80% RH, listed as Ibrutinib Form I", "result": 0.19, "unit": "%"},
      {"measurement": "Water uptake under 95% RH", "setting": "[2]; 95% RH", "result": 0.48, "unit": "%"},
      {"measurement": "Hygroscopicity (European pharmacopoeia criteria)", "setting": "[2]; 80% RH", "result": "non-hygroscopic"},
      {"measurement": "Chemical purity", "setting": "[3]; 25° C./60% RH", "result": 98.98, "unit": "%"},
      {"measurement": "Final form", "setting": "[3]; 25° C./60% RH", "result": "Form I"},
      {"measurement": "Chemical purity", "setting": "[3]; 40° C./75% RH", "result": 98.98, "unit": "%"},
      {"measurement": "Final form", "setting": "[3]; 40° C./75% RH", "result": "Form I"}
    ]}
  ]
}
